Measurements from PMC5503626, “GLUT1-mediated selective tumor targeting with fluorine containing platinum(II) glycoconjugates” (Oncotarget, 2017).
Blank lines part the entries; values can stand above or below the molecule they belong to.

Assays:
DBA/2 mice [1] = settings: both mouse models (DBA/2 and BALB/c)
Protocol: The maximum tolerated dose is defined as the highest tolerated dose (mean weight loss < 15%) without causing major (life-threatening) toxicity (< 15% toxic deaths) in the study.
Three weeks-old male DBA/2 mice purchased from Beijing Vital River Laboratory Animal Technology Co. Ltd. were used for MTD study. Determination of MTD was performed as previously described [22]. […] Physiological observations (body weight and food consumption) were recorded. The maximum tolerated dose is defined as the highest tolerated dose (mean weight loss < 15%) and not cause major (life-threatening) toxicity (< 15% toxic deaths) during the study.

[2] = test system: H460 (human lung cancer cell line); experiment: MTS cytotoxicity assay, H460; assay type: cell-based; settings: 72 h, mean ± SD
Protocol: (§1) The cisplatin stock solution was prepared in PBS.

[3] = test system: HT29 (human colon cancer cell line); settings: read-out: IC50 (μM) HT29; MTS assay, 72 h, mean ± SD
Protocol: The human colon cancer (HT29), breast cancer (MCF7), prostate cancer (DU145) and ovarian cancer (SK-OV-3) cell lines, were obtained from Central Institute of Pharmaceutical Research, CSPC Pharmaceutical Group, China. The human lung cancer cell lines H460 and A549 were purchased from the American Type Culture Collection (ATCC). […] MCF7 and SK-OV-3 were cultured in advanced Dulbecco's modified Eagle medium (DMEM), and other cell lines were cultured as adherent monolayer in RPMI-1640 supplemented with 1% (w/v) glutamine and 10% (v/v) fetal bovine serum (Gibco) at 37°C under a humidified atmosphere containing 5% CO2 and 95% air.
Cytotoxicity assays were carried out by the Celltiter 96 aqueous nonradioactive cell proliferation assay (Promega, Madison, WI). Cells were harvested by trypsinization and seeded in a 96-well flat-bottomed microplate in volumes of 100 μL at the following appropriate densities: 5.0 × 10^3 (A549), 8.0 × 10^3 (HT29), and 3.0 × 10^3 (H460), 5.0 × 10^3 (SKOV3), 8.0 × 10^3 (MCF7), 8.0 × 10^3 (DU145) cells per well. After being allowed to settle and resume exponential growth for 24 h, the cells were treated either with vehicle or with appropriate serial dilutions of the complexes. […] All the tested compounds were dissolved at room temperature prior to use and serially diluted in medium. Cells were incubated in a humidified atmosphere of 5% CO2 at 37°C for 72h. After incubation, 20 μL of MTS/PMS solution were added to each well and the mixtures were allowed to equilibrate for 2 h. The absorbance of MTS products was measured spectrophotometrically at 490 nm with microplate reader (VERSAmax, USA). The IC50 values of each test sample were calculated from nonlinear curve fits using dose-response equation in GraphPad Prism (La Jolla, CA). Experimental conditions were performed in five replicates and the calculated IC50 values are averages of three individual experiments.

[4] = test system: HT29, empty vector transfected and shGLUT1-transfected cells; experiment: Cellular platinum accumulation (ICP-MS); assay type: cell-based, human; settings: 200 μM, 2 h, DNA isolated
Protocol: The uptake values are depicted in Figure 5H.
HT29 cells were seeded in 10 cm dishes at densities of 6 × 10^6 cells/dish and kept at 37°C in a humidified 5% CO2 incubator. […] The cell suspensions were centrifuged at 2500 rpm for 10 min and remove the PBS. Vortex vigorously to resuspend cells. Nuclei lysis solution was added to lyse the cells. DNA was extracted with TIANamp Genomic DNA kit (TIANGEN). The extracted DNA was dissolved in concentrated nitric acid (0.05 mL) and diluted with 4.95 mL of deionized water (final concentration 1% v/v) for determining the platinum content. The platinum content taken up by the cells was determined by Agilent 7700X ICP-MS (Agilent Technologies, Tokyo, Japan). Calibrations were done using standard solutions containing 6.25, 12.5, 25, 50 and 100 ppb platinum.

[5] = test system: HT29 tumor xenograft BALB/c nude mice model
Protocol: Female BALB/c nude mice were inoculated by subcutaneous injection of HT29 human colon cancer cells (5 × 10^6). For the treatment groups, drug dosage was adjusted for average body weight for each group. Injection volume was 10 mL/kg. Each treatment group contains eight mice and control animals used ten mice and received injections of sterile saline. Treatments were initiated when the tumor reached a volume of 100-300 mm^3 in all mice. Animals received multiple treatments intravenously on days 0, 7, 14 and 21. […] Saline (5% v/v) was administered to the vehicle control group. Tumor volume was assessed regularly by measuring length (l) and width (w) with caliper and calculated using the formula V = lw^2/2. Body weight was recorded and used as a parameter of systemic toxicity. All mice were sacrificed on the 46th day of the experiment, and the tumor weight was measured.

[6] = test system: SKOV3 (human ovarian cancer cell line); experiment: MTS cytotoxicity assay, SKOV3; assay type: cell-based; settings: for IC50: MTS assay, 72 h, mean ± SD
Protocol: as §1

[7] = test system: 5′-Guanosine Monophosphate (5′-GMP); experiment: Reaction kinetics with 5′-GMP by 1H NMR; settings: 5 mM complex, 10 mM 5′-GMP, 5 mM NaCl, pH 7.2-7.4, 37°C
Protocol: A 5 mM solution of the sodium chloride was added to the mixture to simulate the intracellular environment.
Kinetic study of the substitution reactions between sugar conjugated platinum complexes with 5′-Guanosine Monophosphate was performed on Bruker Avance 400 MHz spectrometer by ^1H NMR analysis. Platinum complex (5 mM) and 5′-GMP (10 mM) were freshly prepared in deuterium oxide (D2O) at 37°C. A 5 mM solution of the NaCl in D2O was added to the mixture just before running the spectra. All samples were incubated at 37°C in a water bath to simulate physiological conditions and 1H NMR spectra were recorded at 295 K over a period of several days.

[8] = test system: MCF7 (human breast cancer cell line); experiment: MTS cytotoxicity assay, MCF7; assay type: cell-based; settings: 72 h, mean ± SD
Protocol: as §1

[9] = test system: DU145 (human prostate cancer cell line); experiment: MTS cytotoxicity assay, DU145; assay type: cell-based; settings: 72 h, mean ± SD
Protocol: as §1

[10] = test system: A549 (human lung carcinoma); experiment: MTS cytotoxicity assay, A549; assay type: cell-based; settings: for IC50: MTS assay, 72 h, mean ± SD
Protocol: as §1

[11] = test system: L1210 leukemia bearing DBA/2 mice; settings: 5a 11 mg/kg (18% MTD) vs oxaliplatin 7 mg/kg (70% MTD), i.p., days 1, 5, 9
Protocol: The same male DBA/2 mice were used for in vivo efficacy study. Mice were kept in a pathogen-free environment under a condition of constant photoperiod. […] Six mice for treatment groups and ten mice for control group were used for this in vivo study. L1210 murine leukemia cells (1 × 10^6) were injected intraperitoneally into DBA/2 mice on day 0. […] Control group of ten mice each received injections of sterile saline. Animals were observed daily for clinical signs of toxicity and body weight was measured throughout the study.

DBA/2 mice [12] = settings: previous study; cited from earlier work
BALB/c nude mice = settings: previous study; cited from earlier work
pUC18 plasmid DNA = experiment: Plasmid unwinding assay (gel electrophoresis); settings: 12.5 to 100 μM, 37°C
Protocol: To assess if the in vitro anti-proliferative activity of the sugar conjugates may be at the DNA adduct level, a plasmid unwinding assay was performed. The local untwisting of closed-circular supercoiled DNA induced by different types of platinum−DNA adducts can be determined by this assay [36]. […] On agarose gels, supercoiled plasmid DNA (form I) migrates faster in an electrical field than the nicked circle (form II).
After the incubation period, drug-DNA mixtures were loaded onto 0.8% agarose gel and electrophoresis was performed in Tris-acetate/EDTA buffer (TAE) for 1.5 h at 80 V. The gel was stained with GelRed^TM nucleic acid dye, visualized and photographed on the Bio-Rad Trans illuminator IEC 1010 (Bio-Rad, Hercules, CA).

[13] = test system: cisplatin resistant HT29cisR human colon carcinoma cell line; experiment: Cytotoxicity in cisplatin resistant cells; assay type: cell-based; settings: read-out: IC50 against HT29cisR
Protocol: as §1

[14] = test system: HT29 human colon cancer cell line; experiment: GLUT1 inhibitor (quercetin) dependent cytotoxicity assay; assay type: cell-based; settings: 48 h
Protocol: (E) RT-PCR analysis of GLUT1 mRNA expression in empty vector transfected and shGLUT1-transfected cells. NT: HT29 cells; mock: HT29 cells transfected by empty vector pLKO.1; shRNA1: HT29 cells transfected by shGLUT1-1 and selected by 1 μg/mL of puromycin; shRNA2: HT29 cells transfected by shGLUT1-2 and selected by 1 μg/mL of puromycin. […] HT29 exposed with PBS or quercetin alone were served as negative control. […] Data was calculated from three independent experiments. *P < 0.05, compared to the control group.
HT29 cells were grown in monolayer and were treated with and without quercetin, followed by exposure to 100 μM of platinum(II) complexes for 48 h. MTS assay was used to analyze the cell viability and the effects of GLUT1 inhibitor quercetin on cytotoxicity.

SMILES: O=C1[O][Pt]2([NH][C@@H]3CCCC[C@H]3[NH]2)[O]C(=O)C1(F)CCO[C@H]1O[C@H](CO)[C@@H](O)[C@H](O)[C@H]1O (stereo partly drawn) [5a, (trans-R,R-cyclohexane-1,2-diamine)-2-fluoromalonatoplatinum(II)-α-D-glucose conjugate]
MTD higher than oxaliplatin (DBA/2 mice [1]): ~5 fold
IC50 [2]: 11.05 ± 0.11 µM
IC50 [3]: 0.53 ± 0.16 µM
platinum uptake (intracellular platinum accumulation) [4]: greater than that in HT29-shRNA1 and HT29-shRNA2 cells
tumor volume ([5]; 25 mg/kg i.v., days 0, 7, 14, 21): statistically significant tumor shrinkage
IC50 [6]: 16.7 ± 0.32 µM
reaction with 5′-GMP compared to oxaliplatin [7]: faster reactions
IC50 [8]: 0.61 ± 0.13 µM
IC50 [9]: 5.98 ± 0.16 µM
IC50 [10]: 0.35 ± 0.17 µM
activity higher than oxaliplatin in A549 ([10]; versus oxaliplatin): 2 fold
lifespan and survival rate [11]: overwhelming superiority in lifespan and survival rate
MTD (DBA/2 mice [12]): 60 mpk
MTD (BALB/c nude mice): 36 mpk

IC50 [3]: 2.16 ± 0.18 µM
SMILES: O=C1[O][Pt]2([NH][C@@H]3CCCC[C@H]3[NH]2)[O]C(=O)C1(F)CCO[C@H]1O[C@H](CO)[C@@H](O)[C@H](O)[C@@H]1O (stereo partly drawn) [5b, (trans-R,R-cyclohexane-1,2-diamine)-2-fluoromalonatoplatinum(II)-α-D-mannose conjugate]
IC50 [2]: 10.2 ± 0.15 µM
IC50 [6]: 2.22 ± 0.19 µM
lower IC50 values than oxaliplatin in SK-OV-3 ([6]; versus oxaliplatin): up to 70%
reaction with 5′-GMP compared to oxaliplatin [7]: faster reactions
IC50 [8]: 0.41 ± 0.09 µM
IC50 [9]: 2.6 ± 0.18 µM
IC50 [10]: 0.65 ± 0.1 µM

IC50 [3]: 1.07 ± 0.12 µM
SMILES: O=C1[O][Pt]2([NH][C@@H]3CCCC[C@H]3[NH]2)[O]C(=O)C1(F)CCO[C@@H]1O[C@H](CO)[C@H](O)[C@H](O)[C@H]1O (stereo partly drawn) [5c, (trans-R,R-cyclohexane-1,2-diamine)-2-fluoromalonatoplatinum(II)-β-D-galactose conjugate]
IC50 [2]: 10 ± 0.15 µM
IC50 [6]: 22.05 ± 0.2 µM
reaction with 5′-GMP compared to oxaliplatin [7]: faster reactions
IC50 [8]: 9.82 ± 0.12 µM
IC50 [9]: 5.11 ± 0.14 µM
IC50 [10]: 4.9 ± 0.16 µM

SMILES: N.N.[Cl][Pt][Cl] [Cisplatin, cis-(NH3)2PtCl2]
mobility of supercoiled and singly-nicked plasmid DNA bands (pUC18 plasmid DNA): increased and showed concentration dependency
IC50 [13]: 19.4 µM

SMILES: O=C1[O][Pt]2([NH][C@@H]3CCCC[C@H]3[NH]2)[O]C1=O [Oxaliplatin, reference compound]
IC50 [2]: 22.11 ± 0.17 µM
IC50 [3]: 5.05 ± 0.2 µM
dependency of cell-killing potency on quercetin ([14]; 100 μM platinum complex, with or without quercetin (20 μM)): did not exhibit quercetin dependent cytotoxicity
mobility of supercoiled and singly-nicked plasmid DNA bands (pUC18 plasmid DNA): increased and showed concentration dependency
body weight change versus vehicle group ([5]; 5a 25 mg/kg, oxaliplatin 7 mg/kg, i.v. qw x 4): no significant difference
IC50 [6]: 8.54 ± 0.18 µM
IC50 [8]: 0.79 ± 0.11 µM
IC50 [9]: 2.05 ± 0.16 µM
IC50 [10]: 0.86 ± 0.09 µM
MTD (DBA/2 mice [12]): 10 mpk
MTD (BALB/c nude mice): 7 mpk

SMILES: O=c1c(O)c(-c2ccc(O)c(O)c2)oc2cc(O)cc(O)c12 [quercetin]
cytotoxic effect of quercetin alone ([14]; quercetin 20 μM alone): did not exert any cytotoxic effect
